# Measurements published in patent US20260102501A1, “ANTI-CANCER NUCLEAR HORMONE RECEPTOR-TARGETING COMPOUNDS” (Nuvation Bio Inc., priority 2022, published 2026).
# pIC50: −log10 of the molar value.
# Experiments:
# LNCap cells = experiment: Cell viability assay (CellTiterGlo); assay type: cell-based; conditions: Homo sapiens, 144 h, 6 days incubation, CellTiterGlo, read-out: LNCap (IC50)
# [1] = target: T1, GR (cytosol from IM-9 cells) (Homo sapiens, UniProt P04150); experiment: GR binding assay (3H-Dexamethasone displacement)
# T1 sequence (P04150 1-777): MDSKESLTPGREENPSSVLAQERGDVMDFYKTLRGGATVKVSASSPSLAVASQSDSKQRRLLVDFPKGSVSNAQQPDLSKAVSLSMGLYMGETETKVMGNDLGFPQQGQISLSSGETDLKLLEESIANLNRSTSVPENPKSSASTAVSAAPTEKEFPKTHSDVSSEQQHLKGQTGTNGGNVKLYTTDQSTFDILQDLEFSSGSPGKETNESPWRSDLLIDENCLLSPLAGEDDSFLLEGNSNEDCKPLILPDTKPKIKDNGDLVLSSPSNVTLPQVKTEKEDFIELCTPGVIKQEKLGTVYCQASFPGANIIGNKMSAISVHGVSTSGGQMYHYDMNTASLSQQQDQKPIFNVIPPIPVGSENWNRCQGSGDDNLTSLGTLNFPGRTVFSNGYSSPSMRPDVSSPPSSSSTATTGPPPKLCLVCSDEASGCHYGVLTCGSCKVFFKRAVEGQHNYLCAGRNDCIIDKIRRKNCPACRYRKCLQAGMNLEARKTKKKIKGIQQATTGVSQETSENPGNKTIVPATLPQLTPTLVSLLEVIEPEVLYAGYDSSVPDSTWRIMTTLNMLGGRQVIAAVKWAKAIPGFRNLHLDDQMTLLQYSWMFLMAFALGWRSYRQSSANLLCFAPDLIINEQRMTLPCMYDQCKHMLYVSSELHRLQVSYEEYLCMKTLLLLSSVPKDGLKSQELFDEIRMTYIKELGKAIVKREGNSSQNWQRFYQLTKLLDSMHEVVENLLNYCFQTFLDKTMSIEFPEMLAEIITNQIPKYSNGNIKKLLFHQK
# [2] = target: T2, full-length androgen receptor (HEK293 cells stably expressing) (Homo sapiens, UniProt P10275); experiment: AR antagonism assay (luciferase reporter)
# T2 sequence (P10275 1-920): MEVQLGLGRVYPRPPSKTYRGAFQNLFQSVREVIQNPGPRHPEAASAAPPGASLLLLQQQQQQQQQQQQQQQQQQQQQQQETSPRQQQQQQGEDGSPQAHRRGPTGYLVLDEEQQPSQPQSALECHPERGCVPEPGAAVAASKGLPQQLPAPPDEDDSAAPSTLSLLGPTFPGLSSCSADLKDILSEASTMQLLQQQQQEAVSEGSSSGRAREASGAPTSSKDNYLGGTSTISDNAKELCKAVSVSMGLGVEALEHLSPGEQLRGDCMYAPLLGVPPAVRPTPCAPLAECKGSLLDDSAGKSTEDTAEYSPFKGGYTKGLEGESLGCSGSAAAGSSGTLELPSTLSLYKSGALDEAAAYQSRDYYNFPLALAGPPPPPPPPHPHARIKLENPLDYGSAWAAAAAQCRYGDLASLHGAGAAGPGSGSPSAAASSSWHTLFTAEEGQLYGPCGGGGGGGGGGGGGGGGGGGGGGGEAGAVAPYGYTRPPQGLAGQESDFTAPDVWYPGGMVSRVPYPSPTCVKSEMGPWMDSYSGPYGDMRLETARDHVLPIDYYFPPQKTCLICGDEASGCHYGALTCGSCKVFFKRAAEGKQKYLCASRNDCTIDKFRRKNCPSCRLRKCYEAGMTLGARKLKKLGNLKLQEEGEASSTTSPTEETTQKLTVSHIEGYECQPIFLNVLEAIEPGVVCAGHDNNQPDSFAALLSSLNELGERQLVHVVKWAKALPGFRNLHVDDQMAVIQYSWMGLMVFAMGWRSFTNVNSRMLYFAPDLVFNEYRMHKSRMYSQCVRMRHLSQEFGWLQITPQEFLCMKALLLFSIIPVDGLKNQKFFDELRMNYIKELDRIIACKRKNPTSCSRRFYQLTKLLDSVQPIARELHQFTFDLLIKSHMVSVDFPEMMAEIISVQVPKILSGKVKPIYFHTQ
# Procedure: AR antagonism assay: To evaluate AR antagonist activity, test compound was added to the assay plate (top dose 10 μM, 3 fold serial dilution, 10 point dose response). HEK293 cells stably expressing the full-length androgen receptor were seeded at a density of 20000 cells/well in the assay plate. The assay plate was then incubated at room temperature for 10 minutes and at 37° C. 5% CO2 for 20 minutes. Testosterone was added to the assay plate at 1 nM final concentration and the assay plate incubated at 37° C., 5% CO2 for 20 h. […] Steady-glo was added to the assay plate and mixed at room temperature for 20 minutes on an orbital shaker, before reading out on the En Vision plate reader.
# IEC6 cells = experiment: Cell viability assay (CellTiterGlo); conditions: Rattus norvegicus, IEC-6, 144 h, read-out: IEC-6 (IC50, nM)
# Procedure: Cell viability assay: LNCap, 22Rv1, MCF7, MDAMB361, T47D, and IEC6 cells were seeded at a density of 500-2000 cells/well in 96 well plates, and a ‘T0’ (timepoint 0) was included along with the assay plate. The plates were then incubated at 37° C., 5% CO2 in a cell culture incubator overnight. On the next day, the ‘T0’ plate was assayed using CellTiterGlo (Promega, Inc) according to the manufacturer's instructions. The appropriate compounds were diluted in DMSO and added to the assay plate (final DMSO concentration of 0.1-0.2%) on the next day. The assay plates were incubated for 6 days at 37° C., 5% CO2. After the incubation period, the plates were assayed using CellTiterGlo (Promega, Inc) according to the manufacturer's instructions and luminescence was read on the En Vision plate reader. […] GraphPadPrism was used to analyze the data and determine GI50/IC50 values.
# [3] = target: T3, ligand binding domain of the glucocorticoid receptor (HEK293 cells stably expressing) (Homo sapiens, UniProt P04150); experiment: GR antagonism assay (luciferase reporter)
# T3 sequence (P04150 524-758 limits assumed): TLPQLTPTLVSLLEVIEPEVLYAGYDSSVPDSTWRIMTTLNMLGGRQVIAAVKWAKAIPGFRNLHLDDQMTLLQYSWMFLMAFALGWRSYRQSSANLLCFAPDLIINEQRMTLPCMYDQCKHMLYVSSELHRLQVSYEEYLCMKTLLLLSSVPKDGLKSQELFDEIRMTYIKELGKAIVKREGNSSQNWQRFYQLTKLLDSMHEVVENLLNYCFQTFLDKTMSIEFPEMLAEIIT
# Procedure: HEK293 cells stably expressing the ligand binding domain of the glucocorticoid receptor were seeded at a density of 40000 cells/well in the assay plate. The assay plate was then incubated at 37° C., 5% CO2 for 30 minutes. Dexamethasone was added to the assay plate at 1.5 nM final concentration and the assay plate incubated at 37° C., 5% CO2 for 20 h. After the incubation period, Dual-glo luciferase reagent was added to the assay plate and mixed at room temperature for 20 minutes on an orbital shaker, before reading out on the En Vision plate reader. 50 μL of Stop & Glo reagent was added to assay plate, mixed at room temperature for 20 minutes, and read on the Envision plate reader.
compound,measurement,setting,value
"CC[C@@]1(O)C(=O)OCc2c1cc1n(c2=O)Cc2c-1nc1cc(F)c(C)c3c1c2[C@@H](NC(=O)COCCCCCCN(C)c1ccc([C@H]2C[C@@]4(C)[C@@H](CC[C@]4(OC(C)=O)C(C)=O)[C@@H]4CCC5=CC(=O)CCC5=C42)cc1)CC3 [Compound No. 47, (8S,11R,13S,14S,17R)-17-acetyl-11-(4-((6-(2-(((1S,9S)-9-ethyl-5-fluoro-9-hydroxy-4-methyl-10,13-dioxo-2,3,9,10,13,15-hexahydro-1H,12H-benzo[de]pyrano [3′,4′:6,7]indolizino[1,2-b]quinolin-1-yl)amino)-2-oxoethoxy)hexyl)(methyl)amino)phenyl)-13-methyl-3-oxo-2,3,6,7,8,11,12,13,14,15,16,17-dodecahydro-1H-cyclopenta[a]phenanthren-17-yl acetate]",pIC50,LNCap cells,7.00 to 8.00
same,pIC50,[1],> 8.00
same,pIC50,[2],7.00 to 8.00
same,IC50,IEC6 cells,101 to 1000 nM
same,pIC50,[3],6.00 to 7.00
